Measured values as given in US6667025B2 (Mitsubishi Pharma Corporation, priority 1997, dated 2003).

Key:
[1] = tested on: CD3-positive T cells and CD45RA or A/B-positive B cells; test: Lymphocyte contents of blood and lymphoid tissues by two color flow cytometry; format: in vivo, rat
Experimental: The lymphocyte contents of peripheral blood and spleen in FTY720-treated intact or allografted rats were analyzed by two color flow cytometry using anti-rat CD3 and anti-rat CD45RA or A/B monoclonal antibodies (21). Lymphocytes were stained with FITC-conjugated anti-CD3 (clone: 1F4, Caltag Laboratories, South San Fransisco, Calif.) (45) and phycoerythrin-conjugated anti-CD45RA or A/B (clone:OX-33, Pharmingen, La Jolla, Calif.) (46) monoclonal antibodies. The T cell and B cell contents were determined by two-color flow cytometry analysis using a flow cytometer (EPICS-XL; Coulter Co.).
In dogs and monkeys, as well as rats, oral administration with FTY720 also decreases the number of circulating lymphocytes in peripheral blood. The reduction of the number of T cells was especially remarkable. Withdrawal of FTY720 treatment recovered the number of lymphocytes in peripheral blood to the normal level within 2 weeks.

[2] = tested on: cardiac allograft, WKAH donors and ACI recipients; test: Heterotopic cardiac allograft survival, MHC-incompatible rat strains; format: in vivo
[3] = tested on: skin allograft, WKAH donor and F344 recipients; format: in vivo
Description: Two MHC-incompatible rat strains were selected, WKAH donor (RT1^k) and F344 recipients (RT1^IV1). Full-thickness skin grafts (2.0×2.0 cm square) were transplanted to the lateral thorax of recipients and wrapped with sterile, bactericidal gauze. The chest was then wrapped with an elastic bandage. Five days after transplantation, the wraps were removed and the grafts inspected daily for rejection. Rejection was defined as more than 90% necrosis of graft epithelium.

[4] = tested on: calcein-prelabeled lymphocytes in lymphoid tissues; test: Lymphocyte homing of calcein-prelabeled lymphocytes; format: in vivo, rat; conditions: oral 1 mg/kg
Experimental: The lymphocytes prepared from mesenteric lymph nodes and axillary lymph nodes in 5 to 6-week old F344 rats were pre-labeled with calcein-AM (Molecular Probes) at 1 μmol/L on ice for 30 min. After the labeling with calcein-AM, the lymphocytes were washed three times with ice-cold saline. Thereafter, the calcein-prelabeled lymphocytes at 5×10^7 cells were transfused through the tail vein to sex and age-matched F344 rats. FTY720 at 0.1 or 1 mg/kg was orally administered 2.5 hours before the transfusion. After 30 min. of the transfusion, mesenteric lymph nodes, axillary lymph nodes, Peyer's patches, and spleen were removed and the numbers of calcein prelabeled lymphocytes in these tissues were measured using flow cytometer (EPICS-XL). To examine the influence of antibodies against lymphocyte homing receptors, the calcein-prelabeled lymphocytes were treated with 60 μg/ml of either mouse anti-rat CD49d Mab (clone TA-2) (49), hamster anti-rat CD62L Mab (clone HRL3) (50), mouse anti-rat CD11a Mab (clone WT.1) (51), or control Ig at 4° C. for 30 min. Anti-rat lymphocyte-homing receptor Mabs and control Ig were purchased from Seikagaku-kougyou Ltd. or Pharmingen, respectively.

[5] = tested on: renal allograft, mongrel donors and beagle recipients; test: Canine renal allograft survival; format: in vivo; conditions: 5 mg/kg
Experimental: Kidneys from mongrel donor dogs were transplanted into beagle dogs in the right iliac fossa, and the recipient dogs were then nephrectomized bilaterally. Levels of serum creatine and blood urea nitrogen were measured to monitor survival. Graft rejection was defined as the day when either serum creatine levels increased to more than 10.0 mg/dL or blood urea nitrogen levels elevated to more than 200 mg/dL. […] The survival curves are illustrated in FIG. 6.

[6] = tested on: (LEW×BN)F1 recipients injected with LEW spleen cells; test: Lethal GvHR in cyclophosphamide-pretreated recipients; format: in vivo, rat
Experimental: To examine the effect of FTY720 in preventing the lethal GvHR, splenic lymphocytes from LEW donor rats (1×10^8 spleen cells) were injected intravenously into cyclophosphamide-pretreated (LEW×BN)F1 recipients. Cyclophosphamide (Shionogi Co. Ltd; Osaka, Japan) was given at a 200 mg/kg dose.

[7] = tested on: IL-2 mRNA in alloantigen-stimulated splenic T cells; test: IL-2 mRNA expression in allogeneic mixed lymphocyte culture (PCR); format: cell-based, rat; conditions: 48 hours
Experimental: The housekeeping gene HPRT was used as an internal control in order to compare levels of IL-2 mRNA levels relative to the HPRT mRNA levels, as detailed below.
Allogeneic mixed lymphocyte culture was carried out by using nylon-nonadherent spleen cells of F344 rat (RT1^1v1) as responder cells and the spleen cells of WKAH rat (RT1^k) pretreated with 40 μg/ml of mitomycin C for 30 min as stimulator cells. […] After culturing for 48 hours, the cells were recovered by centrifugation. The expression of IL-2 mRNA in the cells was determined by a polymerase chain reaction (PCR) method.
Total RNA was reverse transcribed in […] of buffer solution containing 10 mmol/L Tris-HCl (pH 8.3),50 mM KCl, 5 mM MgCl2, 1 mM each dNTP (dATP, dGTP, dTTP and dCTP), 60 U RNase inhibitor (Takara Ltd. Tokyo, Japan), 15 U avian myelobalastosis virus reverse transcriptase (Takara Ltd.) and 150 pmol random 9-mers at 30° C. for 10 min and 42° C. for 30 min. Primer sequences for IL-2 and hypoxanthine-guanine phosphoribosyltransferase (HPRT) were taken from the previous report (44).
The length in base pairs of the PCR products of IL-2 and HPRT are 351 and 608 bp respectively. […] Fluorescence intensity of the specific bands was visualized by fluorescence image analyzer (FLUOR IMAGER 575®, Molecular Dynamics).

[8] = tested on: skin allograft, LEW donor and F344 recipient; test: Rat skin allograft survival, MHC-compatible strains; format: in vivo; conditions: data not shown

## CCCCCCCCc1ccc(CCC(N)(CO)CO)cc1.Cl [FTY720, 2-amino-2[2-(4-octylphenyl)ethyl]propane-1,3-diol hydrochloride]
[1]; data not shown
  number of bone marrow cells, thymocytes, polymorphonuclear cells: did not effect
[1]; oral 1 mg/kg
  number of T cells and B cells in spleen, thoracic duct, peripheral blood: decrease
  numbers of T cells and B cells in mesenteric and peripheral lymph nodes: significantly increased
[1]; withdrawal of FTY720 treatment
  time to recovery of peripheral blood lymphocytes to normal level after withdrawal: ≤ 2 weeks
[1]; within 6 hours after oral 0.1 to 10 mg/kg
  numbers of T cells and B cells in peripheral blood: dramatically decreased
[2]; 0.1 mg/kg for 14 days
  MST of cardiac allograft: 20.0 days
[2]; 0.3 mg/kg for 14 days
  MST of cardiac allograft: 21.0 days
[2]; 1 mg/kg for 14 days
  MST of cardiac allograft: 25.5 days
[2]; 3 mg/kg for 14 days
  MST of cardiac allograft: 29.5 days
[2]; 10 mg/kg for 14 days
  MST of cardiac allograft: 58.5 days
[2]; 10 mg/kg, in three out of eight recipient rats
  long-term or indefinite cardiac graft survival: more than 100 days
[2]; vs control
  dose that significantly prolonged cardiac allograft survival: ≥ 0.1 mg/kg
[3]; 10 mg/kg for 14 days
  median survival time (MST) of skin graft: 27.0 days
[3]; oral, WKAH to F344 rats
  oral dose that significantly prolonged skin graft survival: ≥ 0.1 mg/kg
[3]; rat, in vivo, po, 10 mg/kg
  renal toxicity or other toxic signs: without renal toxicity or other toxic signs
[4]
  homing of calcein-prelabeled lymphocytes to mesenteric lymph nodes and Peyer's patches: induced lymphocyte homing
[5]
  MST of renal allograft: 12.0 days
[6]; 0.3 mg/kg, four out of five rats, without GvHR-associated symptoms
  survival of recipient rats: more than 60 days
[6]; oral 0.1 mg/kg for 30 days
  GvHR-associated symptoms: prevented the development of GvHR-associated symptoms
  MST of recipient rats: 50.0 days
[7]
  concentration that inhibited IL-2 mRNA expression: > 1000 nM
[8]
  dose that significantly prolonged skin allograft survival: ≥ 0.03 mg/kg
